Experiments:
human recombinant COX-2 = target: T1, human recombinant COX-2 (Homo sapiens, UniProt P35354); test: In vitro COX-2 inhibitory assay (colorimetric Cayman kit); details: for Selectivity Index (SI): COX-1 IC50/COX-2 IC50
T1 sequence (P35354 18-604): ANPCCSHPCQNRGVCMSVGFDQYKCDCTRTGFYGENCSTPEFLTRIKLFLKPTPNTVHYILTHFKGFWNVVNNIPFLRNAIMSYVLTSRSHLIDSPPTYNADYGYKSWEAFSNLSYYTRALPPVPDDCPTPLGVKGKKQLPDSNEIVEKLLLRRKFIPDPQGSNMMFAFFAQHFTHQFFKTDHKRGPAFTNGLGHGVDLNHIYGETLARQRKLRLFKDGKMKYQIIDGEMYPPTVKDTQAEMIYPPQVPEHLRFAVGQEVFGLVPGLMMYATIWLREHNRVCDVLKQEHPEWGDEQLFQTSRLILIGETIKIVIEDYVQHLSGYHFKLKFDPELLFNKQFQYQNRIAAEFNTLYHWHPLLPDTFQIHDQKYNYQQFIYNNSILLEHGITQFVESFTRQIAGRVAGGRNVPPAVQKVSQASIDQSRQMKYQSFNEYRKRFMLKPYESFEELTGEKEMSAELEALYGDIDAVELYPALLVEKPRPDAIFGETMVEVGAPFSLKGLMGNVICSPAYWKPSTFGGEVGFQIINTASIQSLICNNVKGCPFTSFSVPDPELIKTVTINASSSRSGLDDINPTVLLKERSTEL
Procedure: All the newly synthesised compounds were tested for their ability to inhibit COX-1 and COX-2 enzymes using a screening assay method.

HCT116 cells = test: MTS cell viability assay HCT116; format: cell-based; details: Homo sapiens, HCT-116, 48 h, cell line scarcely expressing COX-2
Procedure: Human colorectal cancer cell lines, HCT116 and HT29, and RAW 264.7 macrophages were obtained from ATCC (Manassas, VA). HCA7 colorectal cancer cell line was obtained from Sigma. HT29 and HCT116 cells were cultured in McCoy's 5 A medium (Sigma Aldrich, St. Louis, MO) containing 10% heat-inactivated foetal bovine serum (HI-FBS) (Gibco, USA), 100 μg/mL streptomycin (Invitrogen, USA), and […] penicillin (Invitrogen, USA)[40]. HCA7 and RAW 264.7 cells were cultured in Dulbecco's minimal essential media (DMEM, Invitrogen) containing 10% HI-FBS, sodium pyruvate (1 mM), penicillin ([…]), and streptomycin (100 mg/m)[41]^,[42].
Cells were cultured in 96‐well plates for 48 h and then treated with serum-free media containing different concentrations of the tested compounds (12.5, 25, 50, 100 and 150 µM). After 48 h., MTS reagent (Promega) was added as directed by the manufacturer, and then, the absorbance was measured at 495 nm. The absorbance is proportional to the number of viable cells. IC50 was calculated from the dose-response curves as described previously[45] using GraphPad Prism 8 software (GraphPad Software, San Diego, CA).

With `CC(C)Cc1ccc(C(C)C(=O)NN2C(=O)c3ccccc3N(C)C2c2ccc([N+](=O)[O-])cc2)cc1` (stereo not shown) [7c, 2-(4-Isobutylphenyl)-N-(1-methyl-2-(4-nitrophenyl)-4-oxo-1,4-dihydroquinazolin-3(2H)-yl) propenamide] the IC50 (human recombinant COX-2) was 37 nM, the “Selectivity Index (SI)” value (human recombinant COX-2) was 398.11 and the IC50 (HCT116 cells) was > 150000 nM.
With `NNC(=O)CSc1nc2ccccc2c(=O)n1NC(=O)Cc1ccccc1` [13b, N-(2-((2-hydrazinyl-2-oxoethyl)thio)-4-oxoquinazolin-3(4H)-yl)-2-phenylacetamide] the IC50 (human recombinant COX-2) was 45 nM, the “Selectivity Index (SI)” value (human recombinant COX-2) was 373.77 and the “Selectivity Index (SI)” value (human recombinant COX-2; listed as 13 b) was 373. The IC50 (HCT116 cells) was > 150000 nM.

— publication PMC8330735 (Journal of Enzyme Inhibition and Medicinal Chemistry, 2021)
